Patent US8012940B2, “Utilization of anti-neuropathic pain effect of D-allose and D-psicose” (Teikoku Seiyaku Co., Ltd., priority 2005, dated 2011)

Assays:
[1] = test system: Chung model as a rat neuropathic pain model; assay: von Frey test, pain threshold in the Chung model; type: in vivo; conditions: for pain threshold at the von Frey test: vs distilled water-dosed group; for pain threshold, dose dependence: 1 to 6 g/kg oral
Protocol: Male SD rats of age 6 weeks were divided into groups, each group consisting of 10 rats. So as to examine the effect of a test substance on neuropathic pain, the Chung model was prepared. Specifically, unilateral 5-th and 6-th lumbar pulp nerves of the lumbar pulp nerves were completely knotted at a site as close as possible to lumbar vertebrae. After a 10-day recovery period, the von Frey test was done on the footpad on the surgery side, to measure the pain threshold. The von Frey test was done three times at a 1-week interval as drug holiday. At the first test, the effect of D-allose on the pain threshold was examined; and at the second test and the third test, the effects of D-psicose and a mixture of D-allose and D-psicose on the pain threshold were examined. The test substances were all dissolved in distilled water. The dose in volume was 5 mL/kg for oral administration. The pain threshold was measured immediately before the administration of test substances, and 15 minutes, 30 minutes, 60 minutes and 120 minutes after the administration. The results are expressed as mean and standard error. The significance of the mean was tested by the Dunnett's multiple test. Neuropathic pain models are frequently used as human neuralgia models for making research works on pain and screening for analgesics. […] The Chung model as the neuropathic pain model used in the research works is a model with a characteristic feature such that the model is afflicted with a strong pain on contact stimulation, and is known that the model is annoyed with a pain very similar to human neuralgia (Exp. Brain Res., 113, 200-206, 1997). In such model, the von Frey test is frequently used so as to assay the pain intensity via contact. The von Frey test is a method for observing whether or not an animal when the footpad is pressed with a fine metal wire withdraws the leg. When the animal withdraws the leg, the force just pressing the footpad is defined the threshold then.

Solubility in water = type: physicochemical
leukocyte = conditions: in vitro, cited from earlier work

Compound	pain threshold at the von Frey test ([1]; 1 g/kg oral, 15 minutes after administration)	pain threshold at the von Frey test ([1]; 3 g/kg oral, 15 and 30 minutes after administration)	pain threshold, dose dependence ([1]; single administration)	increase of the threshold compared with the administration of D-allose ([1]; single administration, oral)	solubility in water (Solubility in water)	MCP-1 secretion (leukocyte; similar experiments)	active oxygen scavenging (leukocyte; similar experiments)	pain threshold at the von Frey test ([1]; 1 g/kg oral, N=10)	pain threshold at the von Frey test ([1]; 3 g/kg oral, 15 minutes after administration)	pain threshold at the von Frey test ([1]; 6 g/kg oral, 15, 30 and 60 minutes after administration)	active oxygen generation (leukocyte; leukocyte)
O=C(CO)[C@H](O)[C@H](O)[C@H](O)CO [D-psicose]	not significantly different	significant increase	highly raised, in a manner proportional to the dose	greater	highly soluble in water	MCP-1 secretion-suppressing action	active oxygen-scavenging action	–	–	–	–
O=C[C@H](O)[C@H](O)[C@H](O)[C@H](O)CO [D-allose]	–	–	highly raised, in a manner proportional to the dose	–	highly soluble in water	–	–	not significantly different	significant increase	significant increase	action of suppressing active oxygen generation
